Results reported in PMC12040169 (PLOS Biology, 2025).

Experiment: in vitro
Settings: human, hela cells, % viability

SMILES | viability at 28.5 h, 10 µM
Nc1ncc(-c2ccc(C(F)(F)F)cc2)c(C2CCCN(C(=O)C3CCCCC3)C2)n1 (stereo not shown) [CBK285791] | 98.9%
COCCn1cnnc1C(C)NC(=O)Cn1cc2ccccc2n1 (stereo not shown) [CBK307047] | 92.1%
O=C(C1CCCO1)N1CCC(c2onc3c2CCCCC3)CC1 (stereo not shown) [CBK284487] | 98.4%
CN1C(=O)/C(=C2\SC(=S)N(C(CCC(=O)O)C(=O)O)C2=O)c2ccccc21 (stereo not shown) [CBK261010] | 92.3%
CC(Oc1ccc(Cl)cc1Cl)C(=O)NC(=S)Nc1ccc2c(c1)C(=O)N(C)C2=O (stereo not shown) [CBK267356] | 93.9%
CC(=O)Nc1ccc(S(=O)(=O)NCc2ccc3[nH]c4c(c3c2)CCCC4)cc1 [CBK267122] | 87.1%
CCCC(N)CCCCCC(=O)O (stereo not shown) [CBK217078] | 91.8%
O=C(O)c1ccc(CN2C(=O)c3ccc(C(=O)c4ccc(C(=O)O)cc4)cc3C2=O)cc1 [CBK262831] | 102%
CC(CC(=O)NC(c1ccc(F)cc1)c1nccn1C)n1cccn1 (stereo not shown) [CBK281454] | 93.7%
O=C(Oc1ccc2c(c1)OCO2)c1cc(S(=O)(=O)N2CCOCC2)c(Cl)cc1Cl [CBK269709] | 101%
COc1cccc2ncn(CCCc3nc(C)c(C)s3)c(=O)c12 [CBK307208] | 95.2%
COc1ccc(C[C@@]23CC[C@H](NC(=O)NCCc4ccccc4)C[C@@H]2N(C)CC3)cc1 [CBK024127] | 95.2%
CCCc1[nH]nc(O)c1-c1cccc2ccccc12 [CBK075125] | 94%
COc1cc([C@@]23CC[C@@H](NC(=O)Nc4cccc(C(F)(F)F)c4F)C[C@@H]2N(C)CC3)ccc1C#N [CBK078562] | 106%
CC(C)(C)SCCOC(=O)C1CC(=O)N(Cc2ccccn2)C1 (stereo not shown) [CBK303991] | 90.8%
Cc1ccn(CCNC(=O)CCN2Cc3ccccc3C2=O)n1 [CBK282655] | 86.4%
CCC(Sc1nc(C)cc(C)n1)C(=O)N1c2ccccc2Sc2ccccc21 (stereo not shown) [CBK263018] | 92.9%
Cc1cc2ncc(-c3[nH]ncc3[N+](=O)[O-])cn2n1 [CBK269106] | 98.1%
CN1CCCN(c2cncc(-c3cccs3)n2)CC1 [CBK065542] | 101%
CNc1ccc(OC(=O)c2ccco2)cc1 [CBK010779] | 88.1%
Cc1sc2nc(SCc3nc(-c4ccccc4)no3)n(-c3ccccc3)c(=O)c2c1C [CBK266492] | 110%
CCc1cnc(CN(C)C2CCN(CC(=O)Nc3cccnc3)C2)o1 (stereo not shown) [CBK305358] | 92%

SMILES | viability at 28.5 h, 10 µM
COc1ccccc1-c1ccc(CNC(Cc2ccsc2)c2nccs2)cc1 (stereo not shown) [CBK286315] | 86.7%
CCCCc1nccn1CCn1ccnc1CCCC [CBK020437] | 88.7%
O=C(O)c1ccc(N2C(=O)C3C4C=CC(C4=C(c4ccccc4)c4ccccc4)C3C2=O)cc1 (stereo not shown) [CBK263030] | 104%
Cc1ncccc1-c1cc2cccnc2n1CCC(=O)NC1CC1 [CBK282690] | 106%
O=S(=O)(NCc1cccnc1)c1ccc(Cl)c(Cl)c1Cl [CBK264032] | 91.1%
COCCOCC(=O)N1CCC2(C/C=C/C[C@H]3COCC[C@H]3NC(=O)CNC2=O)CC1 [CBK292170] | 105%
COCc1nnc(S)n1-c1cccc(OC)c1 [CBK288424] | 87.7%
COc1cc(C(=O)Oc2cccc(Nc3ncnc4ccccc34)c2)cc(OC)c1OC [CBK264908] | 109%
O=C(NCc1ccccn1)c1cc(-c2ccc(Cl)cc2)[nH]n1 [CBK116549] | 99.5%
NS(=O)(=O)c1ccc(CCNC2CC(=O)N(CCc3ccccc3)C2=O)cc1 (stereo not shown) [CBK263502] | 93.4%
CCCn1c(SCC(=O)NC2CCN(CC)CC2)nc2cc(Cl)ccc21 [CBK305027] | 104%
COc1cc([N+](=O)[O-])ccc1NC(=O)CCN1C(=O)C2C3CCC(C3)C2C1=O (stereo not shown) [CBK265141] | 99.3%
Nn1c(-c2cccs2)nc2ccccc2c1=O [CBK003650] | 99.2%
CC(=O)NCc1cccc(-c2cc(C(=O)NCCc3cccc(OC(F)(F)F)c3)cnc2-c2ccc(Cl)cc2)c1 [CBK164414] | 84.7%
CCNC(=S)N1CCN(CCNC=C2C(=O)CC(c3ccco3)CC2=O)CC1 (stereo not shown) [CBK264742] | 91.7%
O=C(O)/C=C/C(=O)Nc1cccc(C(=O)O)c1 [CBK260988] | 97.7%
C/C(=N\NC(=O)CCN1CCN(C)CC1)c1ccc(O)cc1 [CBK263142] | 92.2%
O=C(O)C1CC1C(=O)N1CC2(CCCC2)c2c(F)cccc21 (stereo not shown) [CBK306360] | 112%
COc1cccc(NC(=O)c2cc3ccccc3o/c2=N\O)c1 [CBK288387] | 86%
COc1ccc(CCN2CCC(Oc3nccnc3OCc3cccnc3)CC2)cc1OC [CBK083179T] | 99%
Cc1ncsc1C(=O)N1CCN(Cc2ccco2)C[C@@H]1C(C)C [CBK285486] | 101%
COc1ccc([C@]23CN(C)C[C@H]2CCN(C(=O)c2cccc(Br)c2)C3)cc1OC [CBK075111T] | 96.7%

SMILES | viability at 28.5 h, 10 µM
Cc1cn([C@H]2C[C@@H](O)[C@@H](CO)O2)c(=O)nc1-n1cncn1 [CBK201235] | 82.9%
CCCn1nccc1C(=O)NC1CCCN(Cc2cccc(OC)c2)C1 (stereo not shown) [CBK306563] | 84.9%
CC(=O)c1ccc(NC(=O)NNS(=O)(=O)c2ccc(F)cc2)cc1 [CBK266944] | 109%
CCc1oc2ccc(Cl)cc2c1C(=O)CCN1CCCCC1 [CBK009675C] | 99.1%
COC(=O)c1c(NC(=O)C(=O)NCc2ccco2)sc2c1CCCC2 [CBK269269] | 87.5%
COc1ccc(C=C2CCCC3C2=NN(C(=O)CCC(=O)O)C3c2ccc(OC)c(OC)c2)cc1OC (stereo not shown) [CBK296070] | 107%
CC(C)Nc1nc2cc(Cl)c(Cl)cc2nc1Sc1cccc(O)c1 [CBK093732] | 94.8%
Clc1ccc(COc2nccnc2OCc2cccnc2N2CCOCC2)cc1Cl [CBK161610] | 88.8%
OCCN(CCO)c1cncc(-c2ccc(F)c(Cl)c2)n1 [CBK066015] | 96.3%
COC(=O)[C@@H]1Cc2ncn(C(C)C)c2CN1C(=O)c1ccc(F)cc1 [CBK288990] | 80.6%
COc1ccccc1NCC(=O)n1nc(C)cc1C [CBK263879] | 97.8%
O=C(NC(c1ccc2c(c1)CCO2)[C@H]1C[C@@H](O)C1)c1c[nH]c(=O)c(Cl)c1 (stereo partly shown) [CBK306634] | 95%
c1ccc(NCc2ncnc3c2ncn3C2CCCCO2)cc1 (stereo not shown) [CBK021593] | 100%
COCCn1c(SCc2cn3c(C)cccc3n2)nc(C)c1C [CBK304050] | 83.9%
CN1CCN(c2ccccc2NC(=O)c2ccc3c(c2)OCCO3)CC1 [CBK268072] | 101%
O=C(O)CCC1NC(=O)N(C2CCCCC2)C1=O (stereo not shown) [CBK287046] | 77.3%
CCCC/C=C/c1ccc(Nc2ccc3c(c2)OCCO3)nc1 [CBK037774] | 93.3%
CCN(CC)c1c(C)nc2ccc(C(=O)N(C)CCN(C)C)cn12 [CBK145950] | 90.6%
CCC(CN1CCCC1)NC(=O)Cc1ccc(OC)c(C)c1 (stereo not shown) [CBK282752] | 92.9%
COC(=O)c1cc(CN2CCCN(S(=O)(=O)c3ccc(C(=O)c4ccccc4)cc3)CC2)cn1C [CBK062770] | 97.2%
Cc1ccc(-c2nccnc2OCc2ccccn2)c(C)c1 [CBK106979] | 90.7%
COCn1nccc1S(=O)(=O)NCCc1cn2ccccc2n1 [CBK304060] | 80.6%

SMILES | viability at 28.5 h, 10 µM
CN(C)[C@@H]1CN(Cc2cccnc2)C[C@H]1c1cn(C)c2ccccc12 [CBK284875] | 110%
COc1ccc(SCC(=O)O)cc1 [CBK111455] | 93.7%
CCN1CC(C(=O)N2CC(O)CC2c2cc(F)ccc2F)CC1=O (stereo not shown) [CBK304031] | 103%
O=C(Nc1ccc2oc(-c3ccccc3)nc2c1)C1CCCO1 (stereo not shown) [CBK107724] | 84.1%
FC(F)(F)c1cccc(-c2nccnc2NCc2ccc3c(c2)OCO3)c1 [CBK037350] | 94.2%
CCN(CC)c1ccc(NC(=O)N(CCCN2CCOCC2)Cc2ccc(OC)c(OC)c2)cc1 [CBK159168] | 91.1%
CNC(=O)c1sc2ccccc2c1C1CCN(Cc2ccc(Oc3ncccn3)cc2)C1 (stereo not shown) [CBK285881] | 85.9%
CC(NC(=O)C1CCN(CCN2C(=O)c3ccccc3C2=O)CC1)c1ccc(F)cc1 (stereo not shown) [CBK148750] | 107%
CNC(=O)Nc1cccc(S(N)(=O)=O)c1 [CBK023839] | 89.1%
COCCNc1nc(-c2ccccc2CO)ccc1C(=O)NCCNC(C)=O [CBK076548] | 101%
O=C(Nc1cccc(N2CCNCC2)c1)c1coc2c1C(=O)CCC2 [CBK034113T] | 87.2%
CCN1CCC2(C/C=C/CCOc3ccccc3C(=O)NCCCNC2=O)CC1 [CBK292060] | 83.3%
N/C(=N\O)c1ccc(OC(F)(F)F)cc1 [CBK019865] | 97.2%
CCC(=O)N1CCCCC1c1nn(C)cc1-c1onc(C)c1C (stereo not shown) [CBK283411] | 80.5%
O=C(c1ccco1)N1CCN(c2cc(-c3cccc4cccnc34)ncn2)CC1 [CBK091117] | 99.1%
COc1ccc(CC(=O)N2CCC(Cc3ccccc3-c3ccccc3)(C(N)=O)CC2)cc1 [CBK285911] | 91.8%
CS(=O)(=O)c1ncc(Cl)c(C(=O)N(Cc2ccccc2)Cc2ccco2)n1 [CBK269603] | 29.3%
Cn1ccnc1C1(O)CCN(C(=O)Nc2cccc(F)c2)CC1 [CBK282279] | 109%
Cc1ccc(C(=O)NCCN2CCOCC2)c(N2CCN(C(=O)c3ccco3)CC2)n1 [CBK076312] | 101%
CC(=O)Nc1ccc(N2C(=O)CSC23C(=O)Nc2ccccc23)cc1 (stereo not shown) [CBK095916] | 91.7%
CCC(C)c1ccc(NC(=O)CSc2nnnn2C)cc1 (stereo not shown) [CBK058085] | 122%

Same assay, conditions: human, hela cells, % viability, bulk resorufin, single well

SMILES | viability at 28.5 h, 10 µM
O=C(COc1ccc(/C=C2\C(=O)NC(=O)N(c3ccc(O)cc3)C2=O)cc1Cl)Nc1ccccc1 [CBK265425] | 84.4%
